# “And” between values parts separate entries of the source, which are not always exact repeats. Equal entries are not always repeated. Inconclusive results and toxic doses are left out.
# Test system: L1210 leukemia ip in BDF1 mice, survival T/C
# Test: NCI In Vivo Anticancer Drug Screen. Data for tumor model L1210 Leukemia (intraperitoneal) in B6D2F1 (BDF1) mice
# Details: endpoint: mean survival time, higher = longer survival
# In short: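 Tumor was transplanted into mice, which were then dosed with test compound or vehicle alone. Survival was recorded for each group, and the treated figure was expressed relative to the control figure.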
# [1] = dose: 100.0 mg/kg/injection, schedule: Q01DX009 (ip), vehicle: Klucel (hydroxypropylcellulose) (HPC)
# [2] = dose: 100.0 mg/kg/injection, schedule: Q04DX003 (ip), vehicle: Klucel (hydroxypropylcellulose) (HPC)
# [3] = dose: 200.0 mg/kg/injection, schedule: Q01DX009 (ip), vehicle: Klucel (hydroxypropylcellulose) (HPC)
# [4] = dose: 400.0 mg/kg/injection, schedule: Q01DX009 (ip), vehicle: Klucel (hydroxypropylcellulose) (HPC)
# [5] = dose: 100.0 mg/kg/injection, schedule: Q01DX001 (ip), vehicle: saline with Tween-80
# [6] = dose: 100.0 mg/kg/injection, schedule: Q01DX009 (ip), vehicle: saline with Tween-80
# [7] = dose: 200.0 mg/kg/injection, schedule: Q01DX001 (ip), vehicle: saline with Tween-80
# [8] = dose: 200.0 mg/kg/injection, schedule: Q01DX009 (ip), vehicle: saline with Tween-80
# [9] = dose: 12.5 mg/kg/injection, schedule: Q01DX009 (ip), vehicle: saline with Tween-80
# [10] = dose: 25.0 mg/kg/injection, schedule: Q01DX009 (ip), vehicle: saline with Tween-80
# [11] = dose: 50.0 mg/kg/injection, schedule: Q01DX009 (ip), vehicle: saline with Tween-80
# [12] = dose: 100.0 mg/kg/injection, schedule: Q04DX003 (ip), vehicle: saline with Tween-80
# [13] = dose: 200.0 mg/kg/injection, schedule: Q04DX003 (ip), vehicle: saline with Tween-80
# [14] = dose: 400.0 mg/kg/injection, schedule: Q04DX003 (ip), vehicle: saline with Tween-80
smiles,measurement,setting,value
O=C1CCCC1C(=O)Nc1cccc2ccccc12 (centres undefined),T/C,"dose: 50.0 mg/kg/injection, schedule: Q01DX001 (ip), vehicle: saline",97 % of control
same,T/C,"dose: 100.0 mg/kg/injection, schedule: Q01DX001 (ip), vehicle: saline",103 % of control
same,T/C,"dose: 200.0 mg/kg/injection, schedule: Q01DX001 (ip), vehicle: saline",97 % of control
same,T/C,"dose: 400.0 mg/kg/injection, schedule: Q01DX001 (ip), vehicle: saline",97 % of control
O=C(Cc1ccccc1)OCCc1ccccc1,T/C,[1],98 % of control and 105 % of control
same,T/C,[2],94 % of control and 98 % of control
same,T/C,[3],97 % of control and 89 % of control
same,T/C,"dose: 200.0 mg/kg/injection, schedule: Q04DX003 (ip), vehicle: Klucel (hydroxypropylcellulose) (HPC)",94 % of control and 100 % of control
same,T/C,[4],101 % of control and 104 % of control
same,T/C,"dose: 400.0 mg/kg/injection, schedule: Q04DX003 (ip), vehicle: Klucel (hydroxypropylcellulose) (HPC)",96 % of control and 100 % of control
CCCN(C(=O)c1cccc([N+](=O)[O-])c1)C(c1ccco1)P(=O)(c1ccccc1)c1ccccc1 (centres undefined),T/C,"dose: 50.0 mg/kg/injection, schedule: Q01DX001 (ip), vehicle: saline with Tween-80",101 % of control
same,T/C,[5],101 % of control
same,T/C,[6],100 % of control and 90 % of control
same,T/C,"dose: 100.0 mg/kg/injection, schedule: Q04DX002 (ip), vehicle: saline with Tween-80",98 % of control
same,T/C,[7],106 % of control
same,T/C,[8],87 % of control
same,T/C,"dose: 200.0 mg/kg/injection, schedule: Q04DX002 (ip), vehicle: saline with Tween-80",102 % of control
same,T/C,"dose: 400.0 mg/kg/injection, schedule: Q04DX002 (ip), vehicle: saline with Tween-80",93 % of control and 88 % of control
CCOC(=O)c1ccc(OC(=O)Nc2ccc(OC)cc2OC)cc1,T/C,[1],101 % of control
CCOC(=O)CNc1cc(C)ccc1C,T/C,"dose: 100.0 mg/kg/injection, schedule: Q04DX002 (ip), vehicle: Klucel (hydroxypropylcellulose) (HPC)",95 % of control
same,T/C,"dose: 200.0 mg/kg/injection, schedule: Q04DX002 (ip), vehicle: Klucel (hydroxypropylcellulose) (HPC)",98 % of control
same,T/C,"dose: 400.0 mg/kg/injection, schedule: Q04DX002 (ip), vehicle: Klucel (hydroxypropylcellulose) (HPC)",95 % of control
C/C=C/CC(C/C=C/C)C1CC[N-]CC1.C/C=C/CC(C/C=C/C)C1CC[N-]CC1.[Cl][Pt+2]([Cl])([Cl])[Cl],T/C,"dose: 3.13 mg/kg/injection, schedule: Q01DX009 (ip), vehicle: other",94 % of control
same,T/C,"dose: 6.25 mg/kg/injection, schedule: Q01DX009 (ip), vehicle: other",87 % of control
same,T/C,"dose: 12.5 mg/kg/injection, schedule: Q01DX009 (ip), vehicle: other",105 % of control
S=c1[nH]c2ccc(Cl)cc2s1,T/C,"dose: 25.0 mg/kg/injection, schedule: Q01DX009 (ip), vehicle: Klucel (hydroxypropylcellulose) (HPC)",101 % of control
same,T/C,"dose: 25.0 mg/kg/injection, schedule: Q04DX003 (ip), vehicle: Klucel (hydroxypropylcellulose) (HPC)",115 % of control
same,T/C,"dose: 50.0 mg/kg/injection, schedule: Q01DX009 (ip), vehicle: Klucel (hydroxypropylcellulose) (HPC)",97 % of control
same,T/C,"dose: 50.0 mg/kg/injection, schedule: Q04DX003 (ip), vehicle: Klucel (hydroxypropylcellulose) (HPC)",106 % of control
same,T/C,[1],97 % of control
same,T/C,[2],96 % of control
Cc1cc(C(=O)Nc2ccc(C3=NCCN3)cc2)ccc1C(=O)Nc1ccc(C2=NCCN2)cc1,T/C,"dose: 3.75 mg/kg/injection, schedule: Q01DX Z (ip), vehicle: saline",98 % of control
same,T/C,"dose: 7.5 mg/kg/injection, schedule: Q01DX Z (ip), vehicle: saline",102 % of control
same,T/C,"dose: 15.0 mg/kg/injection, schedule: Q01DX Z (ip), vehicle: saline",119 % of control
same,T/C,"dose: 60.0 mg/kg/injection, schedule: Q01DX Z (ip), vehicle: saline",196 % of control
same,T/C,"dose: 120.0 mg/kg/injection, schedule: Q01DX Z (ip), vehicle: saline",157 % of control
same,T/C,"dose: 240.0 mg/kg/injection, schedule: Q01DX Z (ip), vehicle: saline",175 % of control
CCCCNC(C)(C)C(SSSC(C)=O)c1ccco1 (centres undefined),T/C,[9],100 % of control
same,T/C,"dose: 12.5 mg/kg/injection, schedule: Q04DX003 (ip), vehicle: saline with Tween-80",102 % of control
same,T/C,[10],104 % of control
same,T/C,"dose: 25.0 mg/kg/injection, schedule: Q04DX003 (ip), vehicle: saline with Tween-80",106 % of control
same,T/C,[11],108 % of control
same,T/C,"dose: 50.0 mg/kg/injection, schedule: Q04DX003 (ip), vehicle: saline with Tween-80",96 % of control
same,T/C,[12],102 % of control
CCOC(=O)OCCCN(C)C,T/C,[6],94 % of control
same,T/C,[12],100 % of control
same,T/C,[8],94 % of control
same,T/C,[13],93 % of control
same,T/C,"dose: 400.0 mg/kg/injection, schedule: Q01DX009 (ip), vehicle: saline with Tween-80",90 % of control
same,T/C,[14],96 % of control
O=C(O)c1ccccc1C(=O)OC1CC2CCC1CC2 (centres undefined),T/C,[5],98 % of control
same,T/C,[7],104 % of control
same,T/C,"dose: 400.0 mg/kg/injection, schedule: Q01DX001 (ip), vehicle: saline with Tween-80",100 % of control
NC(=O)C1CCCCC1C(N)=O (centres undefined),T/C,[12],96 % of control
same,T/C,[13],102 % of control
same,T/C,[14],96 % of control
O=S1(=O)C2CCCC1(Cl)CCC2,T/C,"dose: 75.0 mg/kg/injection, schedule: Q01DX001 (ip), vehicle: saline",107 % of control
same,T/C,"dose: 150.0 mg/kg/injection, schedule: Q01DX001 (ip), vehicle: saline",102 % of control
same,T/C,"dose: 300.0 mg/kg/injection, schedule: Q01DX001 (ip), vehicle: saline",93 % of control
Nc1c(Cl)c(Cl)c2c(c1Cl)C(=O)c1cc(Cl)ccc1-2,T/C,"dose: 100.0 mg/kg/injection, schedule: Q01DX001 (ip), vehicle: carboxymethylcellulose (CMC)",97 % of control
same,T/C,"dose: 200.0 mg/kg/injection, schedule: Q01DX001 (ip), vehicle: carboxymethylcellulose (CMC)",108 % of control
same,T/C,"dose: 400.0 mg/kg/injection, schedule: Q01DX001 (ip), vehicle: carboxymethylcellulose (CMC)",105 % of control
CC(C(=O)O)N(Cc1ccccc1)S(C)(=O)=O (centres undefined),T/C,"dose: 100.0 mg/kg/injection, schedule: Q01DX009 (ip), vehicle: other",97 % of control
same,T/C,"dose: 100.0 mg/kg/injection, schedule: Q04DX003 (ip), vehicle: other",94 % of control
same,T/C,"dose: 200.0 mg/kg/injection, schedule: Q01DX009 (ip), vehicle: other",106 % of control
same,T/C,"dose: 200.0 mg/kg/injection, schedule: Q04DX003 (ip), vehicle: other",102 % of control
same,T/C,"dose: 400.0 mg/kg/injection, schedule: Q01DX009 (ip), vehicle: other",108 % of control
same,T/C,"dose: 400.0 mg/kg/injection, schedule: Q04DX003 (ip), vehicle: other",101 % of control
FC(F)(F)C1=NC(=S)C(c2[nH]c(C(F)(F)F)nc2S)=N1,T/C,"dose: 25.0 mg/kg/injection, schedule: Q01DX009 (ip), vehicle: water",91 % of control
same,T/C,"dose: 50.0 mg/kg/injection, schedule: Q01DX009 (ip), vehicle: water",96 % of control
same,T/C,"dose: 100.0 mg/kg/injection, schedule: Q01DX009 (ip), vehicle: water",96 % of control
same,T/C,"dose: 200.0 mg/kg/injection, schedule: Q01DX009 (ip), vehicle: water",110 % of control
Nc1cnccc1NCCc1cccc(O)c1,T/C,[9],97 % of control
same,T/C,[10],103 % of control
same,T/C,[11],89 % of control
same,T/C,[8],88 % of control
CC(=O)c1cccc(N=Cc2ccc(Cl)cc2Cl)c1,T/C,[1],95 % of control
same,T/C,[3],93 % of control
same,T/C,[4],93 % of control
CCCCCCCCCCCCCCCC[N+]1(CC)CCCC1,T/C,"dose: 25.0 mg/kg/injection, schedule: Q04DX002 (ip), vehicle: saline",96 % of control
same,T/C,"dose: 50.0 mg/kg/injection, schedule: Q04DX002 (ip), vehicle: saline",96 % of control
CN1CCN=C1c1ccc(NC(=O)c2ccc(C(=O)Nc3ccc(C4=NCCN4C)cc3)c(Cl)c2)cc1,T/C,"dose: 1.5 mg/kg/injection, schedule: Q01DX Z (ip), vehicle: water",101 % of control
same,T/C,"dose: 3.0 mg/kg/injection, schedule: Q01DX Z (ip), vehicle: water",103 % of control
same,T/C,"dose: 6.0 mg/kg/injection, schedule: Q01DX Z (ip), vehicle: water",119 % of control

# Source: PubChem BioAssay AID248 (DTP/NCI, 2004)
